Source: patent US20230000876A1, “TREATING CANCERS WITH A CYCLIN-DEPENDENT KINASE INHIBITOR” (Nuvation Bio Inc., priority 2021, published 2023)

Experiments:
SK-MEL-28 = test: Cell viability assay, melanoma cell line SK-MEL-28; type: cell-based
Protocol: (§1) 4.4.4 Compound Plate (10×) Preparation and Compound Treatment • 10× concentrate compound plate preparation: Add 198 μL of assay medium into each well of the V-bottom plate; then transfer 2 μL of the stock compound solution of each concentration from the stock plate. Add 2 μL of DMSO into the Blank and Control wells. Pipette up and down to mix well. This V-plate is designated as the 10× concentrate compound plate. • For day 0 plate, add 15 μL of the DMSO-medium into the Control wells. The final DMSO concentration was 0.1%. Then directly proceed to cell viability assay. • For assay plate, add 15 μL of the compound-medium of each well from the 10× concentrate compound plate into the cells in 96-well assay plate according to the plate map. Add 15 μL of the DMSO-medium into the Blank and Control wells. The final DMSO concentration was 0.1%. • Return the assay plate into incubator and incubate for 6 days.
(§2) The procedures were performed according to the Promega CellTiter-Glo Luminescent Cell Viability Assay Kit manual (Promega-G7573). • The CellTiter-Glo buffer was thawed and equilibrated to room temperature prior to use. • CellTiter-Glo Substrate was equilibrated to room temperature prior to use. • The entire liquid volume of CellTiter-Glo Buffer was transferred into the amber bottle containing CellTiter-Glo Substrate to reconstitute the lyophilized enzyme/substrate mixture. […] Plates were covered with aluminum foil to protect from light. • The contents were mixed for 2 minutes on an orbital shaker to induce cell lysis. • The plate was incubated at room temperature for 20 minutes to stabilize luminescent signal. • Record luminescence on the 2104 EnVision plate reader.
(§3) Inhibition rate (IR) of the tested compounds was determined by the following formula: IR (%)=(1−(RLU compound−RLU day0)/(RLU control−RLU day0))*100%. The inhibitions of different dose of compound were calculated in Excel file, and then were used to plot inhibition curves and evaluate related parameters, such as Min (%), Max (%) and GI50. […]

U-118MG xenograft tumors [1] = test: U-118MG glioma subcutaneous xenograft model; type: in vivo, female CB17 SCID mice; details: Group 3: Compound (I) 30 mg/kg PO, QD; PG-D27
SK-MEL-31 = test: Cell viability assay, melanoma cell line SK-MEL-31; type: cell-based
Protocol: as §1, §2, §3

U-118MG xenograft tumors [2] = test: U-118MG glioma subcutaneous xenograft model; type: in vivo, female CB17 SCID mice; details: for T/C / TGI / Tumor Size: PG-D27
Protocol: The tumor cells were routinely subcultured twice weekly. The cells growing in an exponential growth phase were harvested and counted for tumor inoculation.
The treatments was started on day 7 after tumor inoculation when the average tumor volume reached 150 mm^3. 60 mice were selected and assigned into 6 groups. The testing articles were administrated to the mice according to Table 1.
Tumor size was measured twice weekly in two dimensions using a caliper, and the volume was expressed in mm^3 using the formula: V=0.5 a×b^2 where a and b are the long and short diameters of the tumor, respectively. The tumor sizes are then used for the calculation of T/C and TGI values.
The T/C value (in percent) is an indication of antitumor effectiveness; T and C are the mean volume of the treated and control groups, respectively, on a given day.
TGI was calculated for each group using the formula: TGI (%)=[1−(Ti−T0)/(Vi−V0)]×100; Ti is the average tumor volume of a treatment group on PG-D28 T0 is the average tumor volume of the treatment group on the day of treatment start, Vi is the average tumor volume of the vehicle control group on the same day with Ti, and V0 is the average tumor volume of the vehicle group on the day of treatment start.
All Groups were taken down on PG-D28, tumor, plasma and brain samples were collected.
For statistical analysis for difference among groups 2-6 and group 1, a one-way ANOVA was performed. All the analysis were conducted using GraphPad Prism software. p<0.05 was considered to be statistically significant.

SK-MEL-5 = test: Cell viability assay, melanoma cell line SK-MEL-5; type: cell-based
Protocol: as §1, §2, §3

[3] = Group 2: Compound (I) 10 mg/kg PO, QD
[4] = Group 3: Compound (I) 30 mg/kg PO, QD
[5] = Group 4: Compound (I) 60 mg/kg PO, QD
[6] = Group 5: Compound (I) 60 mg/kg PO, QOD

CC(C)N1CCOc2c(F)cc(-c3nc(Nc4ccc(C5CCN(C)CC5)cn4)ncc3F)cc21 [Compound (I), 5-fluoro-4-(8-fluoro-4-isopropyl-3,4-dihydro-2H-benzo[b][1,4]oxazin-6-yl)-N-(5-(1-methylpiperidin-4-yl)pyridin-2-yl)pyrimidin-2-amine]
GI50 (SK-MEL-28; Homo sapiens, SK-MEL-28, read-out: Absolute GI50): 152 nM
Max (%) (SK-MEL-28; inhibition rate): 106.21%
Min (%) (SK-MEL-28; inhibition rate): 1.70%
TGI (U-118MG xenograft tumors [1]): 96.40%
Max (%) (SK-MEL-31; inhibition rate): 125.31%
Min (%) (SK-MEL-31; inhibition rate): −0.53%
GI50 (SK-MEL-31; read-out: Absolute GI50): 1230 nM
Tumor volume (mean ± SEM) (U-118MG xenograft tumors [2]; 10 mg/kg PO QD, day 0): 154 ± 12 mm^3
Tumor volume (mean ± SEM) (U-118MG xenograft tumors [2]; 10 mg/kg PO QD, day 3): 238 ± 16 mm^3
Tumor volume (mean ± SEM) (U-118MG xenograft tumors [2]; 10 mg/kg PO QD, day 7): 277 ± 20 mm^3
Tumor volume (mean ± SEM) (U-118MG xenograft tumors [2]; 10 mg/kg PO QD, day 10): 291 ± 28 mm^3
Tumor volume (mean ± SEM) (U-118MG xenograft tumors [2]; 10 mg/kg PO QD, day 14): 275 ± 28 mm^3
Tumor volume (mean ± SEM) (U-118MG xenograft tumors [2]; 10 mg/kg PO QD, day 17): 281 ± 34 mm^3
Tumor volume (mean ± SEM) (U-118MG xenograft tumors [2]; 10 mg/kg PO QD, day 21): 269 ± 43 mm^3
Tumor volume (mean ± SEM) (U-118MG xenograft tumors [2]; 10 mg/kg PO QD, day 24): 270 ± 40 mm^3
Tumor volume (mean ± SEM) (U-118MG xenograft tumors [2]; 10 mg/kg PO QD, day 28): 273 ± 39 mm^3
Tumor volume (mean ± SEM) (U-118MG xenograft tumors [2]; 30 mg/kg PO QD, day 0): 155 ± 11 mm^3
Tumor volume (mean ± SEM) (U-118MG xenograft tumors [2]; 30 mg/kg PO QD, day 3): 237 ± 22 mm^3
Tumor volume (mean ± SEM) (U-118MG xenograft tumors [2]; 30 mg/kg PO QD, day 7): 273 ± 26 mm^3
Tumor volume (mean ± SEM) (U-118MG xenograft tumors [2]; 30 mg/kg PO QD, day 10): 241 ± 25 mm^3
Tumor volume (mean ± SEM) (U-118MG xenograft tumors [2]; 30 mg/kg PO QD, day 14): 230 ± 19 mm^3
Tumor volume (mean ± SEM) (U-118MG xenograft tumors [2]; 30 mg/kg PO QD, day 17): 214 ± 16 mm^3
Tumor volume (mean ± SEM) (U-118MG xenograft tumors [2]; 30 mg/kg PO QD, day 21): 193 ± 17 mm^3
Tumor volume (mean ± SEM) (U-118MG xenograft tumors [2]; 30 mg/kg PO QD, day 24): 174 ± 19 mm^3
Tumor volume (mean ± SEM) (U-118MG xenograft tumors [2]; 30 mg/kg PO QD, day 28): 172 ± 18 mm^3
Tumor volume (mean ± SEM) (U-118MG xenograft tumors [2]; 60 mg/kg PO QD, day 0): 156 ± 12 mm^3
Tumor volume (mean ± SEM) (U-118MG xenograft tumors [2]; 60 mg/kg PO QD, day 3): 220 ± 17 mm^3
Tumor volume (mean ± SEM) (U-118MG xenograft tumors [2]; 60 mg/kg PO QD, day 7): 264 ± 14 mm^3
Tumor volume (mean ± SEM) (U-118MG xenograft tumors [2]; 60 mg/kg PO QD, day 10): 227 ± 10 mm^3
Tumor volume (mean ± SEM) (U-118MG xenograft tumors [2]; 60 mg/kg PO QD, day 14): 202 ± 10 mm^3
Tumor volume (mean ± SEM) (U-118MG xenograft tumors [2]; 60 mg/kg PO QD, day 17): 174 ± 12 mm^3
Tumor volume (mean ± SEM) (U-118MG xenograft tumors [2]; 60 mg/kg PO QD, day 21): 160 ± 10 mm^3
Tumor volume (mean ± SEM) (U-118MG xenograft tumors [2]; 60 mg/kg PO QD, day 24): 156 ± 8 mm^3
Tumor volume (mean ± SEM) (U-118MG xenograft tumors [2]; 60 mg/kg PO QD, day 28): 156 ± 8 mm^3
Tumor volume (mean ± SEM) (U-118MG xenograft tumors [2]; 60 mg/kg PO QOD, day 0): 154 ± 11 mm^3
Tumor volume (mean ± SEM) (U-118MG xenograft tumors [2]; 60 mg/kg PO QOD, day 3): 233 ± 20 mm^3
Tumor volume (mean ± SEM) (U-118MG xenograft tumors [2]; 60 mg/kg PO QOD, day 7): 304 ± 27 mm^3
Tumor volume (mean ± SEM) (U-118MG xenograft tumors [2]; 60 mg/kg PO QOD, day 10): 273 ± 28 mm^3
Tumor volume (mean ± SEM) (U-118MG xenograft tumors [2]; 60 mg/kg PO QOD, day 14): 234 ± 22 mm^3
Tumor volume (mean ± SEM) (U-118MG xenograft tumors [2]; 60 mg/kg PO QOD, day 17): 215 ± 22 mm^3
Tumor volume (mean ± SEM) (U-118MG xenograft tumors [2]; 60 mg/kg PO QOD, day 21): 193 ± 20 mm^3
Tumor volume (mean ± SEM) (U-118MG xenograft tumors [2]; 60 mg/kg PO QOD, day 24): 183 ± 21 mm^3
Tumor volume (mean ± SEM) (U-118MG xenograft tumors [2]; 60 mg/kg PO QOD, day 28): 177 ± 22 mm^3
T/C (U-118MG xenograft tumors [2]; [3]): 43.20%
TGI (U-118MG xenograft tumors [2]; [3]): 75.08%
Tumor Size (U-118MG xenograft tumors [2]; [3]): 273 ± 39 mm^3
T/C (U-118MG xenograft tumors [2]; [4]): 27.32%
Tumor Size (U-118MG xenograft tumors [2]; [4]): 172 ± 18 mm^3
T/C (U-118MG xenograft tumors [2]; [5]): 24.64%
TGI (U-118MG xenograft tumors [2]; [5]): 100.03%
Tumor Size (U-118MG xenograft tumors [2]; [5]): 156 ± 8 mm^3
T/C (U-118MG xenograft tumors [2]; [6]): 28.09%
TGI (U-118MG xenograft tumors [2]; [6]): 95.14%
Tumor Size (U-118MG xenograft tumors [2]; [6]): 177 ± 22 mm^3
Antitumor activity relative to the control group (U-118MG xenograft tumors [2]; mouse, in vivo): dose-dependent and statistically significant antitumor activity
Effect of 30 mg/kg QD compared with 60 mg/kg QOD (U-118MG xenograft tumors [2]; mouse, in vivo): similar
GI50 (SK-MEL-5; Homo sapiens, SK-MEL-5, read-out: Absolute GI50): 1240 nM
Max (%) (SK-MEL-5; inhibition rate): 116.12%
Min (%) (SK-MEL-5; inhibition rate): −2.91%
